In patent US10556902B2 (Asceneuron SA, priority 2016, dated 2020):

Target: His-Tagged hOGA (human O-GlcNAcase) (Homo sapiens (Human), UniProt O60502)
Assay: Human O-GlcNAcase enzyme inhibition assay;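 also: reactions contained 20 nM His-tagged hOGA enzyme with 10 µM FL-GlcNAc substrate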
Type: biochemical
Conditions: OGA IC50 (M), FL-GlcNAc substrate, pH 6.5, activity classes defined in μM
Description: Then, 20 nM of His-Tagged hOGA and 10 μM of FL-GlcNAc (Fluorescein mono-beta-D-(2-deoxy-2-N-acetyl) glucopyranoside; Marker Gene Technologies Inc, M1485) were added to the 384-well plate for a final volume of 20 μl.

His-Tagged hOGA (human O-GlcNAcase), sequence (O60502 whole entry): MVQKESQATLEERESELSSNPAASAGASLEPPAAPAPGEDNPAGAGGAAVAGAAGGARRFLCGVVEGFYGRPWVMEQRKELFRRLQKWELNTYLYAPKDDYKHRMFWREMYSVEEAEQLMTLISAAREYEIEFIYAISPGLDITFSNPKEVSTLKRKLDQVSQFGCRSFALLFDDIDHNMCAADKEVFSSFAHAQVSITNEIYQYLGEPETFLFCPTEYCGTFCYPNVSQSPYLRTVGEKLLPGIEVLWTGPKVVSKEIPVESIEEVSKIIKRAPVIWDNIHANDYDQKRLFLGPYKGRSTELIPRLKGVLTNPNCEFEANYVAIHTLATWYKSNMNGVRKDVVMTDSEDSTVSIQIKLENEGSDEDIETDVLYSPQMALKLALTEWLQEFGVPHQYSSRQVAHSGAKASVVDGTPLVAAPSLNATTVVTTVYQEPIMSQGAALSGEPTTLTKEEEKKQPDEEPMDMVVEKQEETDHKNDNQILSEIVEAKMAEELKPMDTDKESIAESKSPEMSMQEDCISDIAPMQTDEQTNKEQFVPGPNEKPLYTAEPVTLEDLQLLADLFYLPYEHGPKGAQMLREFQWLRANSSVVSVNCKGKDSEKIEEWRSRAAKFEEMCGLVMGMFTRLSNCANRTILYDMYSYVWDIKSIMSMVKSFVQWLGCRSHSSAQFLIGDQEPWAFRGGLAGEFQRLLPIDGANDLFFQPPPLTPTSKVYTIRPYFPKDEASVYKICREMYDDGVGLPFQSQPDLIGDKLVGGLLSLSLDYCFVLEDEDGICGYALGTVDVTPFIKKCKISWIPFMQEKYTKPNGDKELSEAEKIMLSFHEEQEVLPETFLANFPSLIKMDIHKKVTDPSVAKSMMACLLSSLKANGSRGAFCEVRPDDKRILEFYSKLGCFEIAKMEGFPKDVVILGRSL

Row | Structure (SMILES) | IC50 [M]
1 | CC(c1ccc2nccnc2c1)N1CCC(n2cc(C(F)(F)F)cn2)CC1 (centres unmarked) [Example 31] | 1e-06 to 1e-05
2 | CC(O)c1nnc(N2CCN(C(C)c3ccc4nccnc4c3)CC2)s1 (racemic) [Example 115, 1-(5-(4-(1-(quinoxalin-6-yl)ethyl)piperazin-1-yl)-1,3,4-thiadiazol-2-yl)ethan-1-ol] | 2e-07 to 1e-06

Same assay, conditions: OGA enzyme inhibition assay; FL-GlcNAc substrate, pH 6.5; activity classes defined in μM; read-out: OGA IC50

Row | IC50 [M] | Structure (SMILES)
3 | < 5e-08 | CC(c1ccc2nccnc2c1)N1CCN(c2ncc3c(n2)CCNC3)CC1 (racemic) [Example 8, 2-(4-(1-(quinoxalin-6-yl)ethyl)piperazin-1-yl)-5,6,7,8-tetrahydropyrido [4,3-d] pyrimidine]
4 | 2e-07 to 1e-06 | CC(c1ccc2nccnc2c1)N1CCN(c2ccc(=O)[nH]c2)CC1 (racemic) [Example 54, 5-(4-(1-(quinoxalin-6-yl)ethyl)piperazin-1-yl)pyridin-2(1H)-one]
5 | < 5e-08 | CNC(=O)c1cnc(N2CCN(C(C)c3ccc4scnc4c3)CC2)nc1 (racemic) [Example 96, 2-(4-(1-(benzo[d]thiazol-5-yl)ethyl)piperazin-1-yl)-N-methylpyrimidine-5-carboxamide]
6 | 2e-07 to 1e-06 | CC(O)c1ccc(N2CCN(C(C)c3ccc4nccnc4c3)CC2)nc1 (racemic) [Example 52, 1-(6-(4-(1-(quinoxalin-6-yl)ethyl)piperazin-1-yl)pyridin-3-yl)ethan-1-ol]
7 | 5e-08 to 2e-07 | CC(c1ccc2nccnc2c1)N1CCN(c2ncc(C3(O)CCOCC3)cn2)CC1 (racemic) [Example 89, 4-(2-(4-(1-(quinoxalin-6-yl)ethyl)piperazin-1-yl)pyrimidin-5-yl)tetrahydro-2H-pyran-4-ol]
8 | 5e-08 to 2e-07 | CC(c1ccc2nccnc2c1)N1CCN(c2ccc(S(C)(=O)=O)cn2)CC1 (racemic) [Example 72, 6-(1-(4-(5-(methylsulfonyl)pyridin-2-yl)piperazin-1-yl)ethyl)quinoxaline]
9 | 2e-07 to 1e-06 | CC(c1ccc2nccnc2c1)N1CCN(c2nnc(CO)s2)CC1 (racemic) [Example 37, (5-(4-(1-(quinoxalin-6-yl)ethyl)piperazin-1-yl)-1,3,4-thiadiazol-2-yl)methanol]
10 | 2e-07 to 1e-06 | CC(c1ccc2nccnc2c1)N1CCN(c2ncc(C3=CCCC3)cn2)CC1 (racemic) [Example 94, 6-(1-(4-(5-(cyclopent-1-en-1-yl)pyrimidin-2-yl)piperazin-1-yl)ethyl)quinoxaline]
11 | < 5e-08 | Cc1cnc(N2CCN(C(C)c3ccc4c(c3)OCC4)CC2)nc1 (racemic) [Example 90, 2-(4-(1-(2,3-dihydrobenzofuran-6-yl)ethyl)piperazin-1-yl)-5-methylpyrimidine]
12 | < 5e-08 | CC(C)C(O)c1cnc(N2CCN(C(C)c3ccc4c(c3)OCC4)CC2)nc1 (racemic) [Example 78, 1-(2-(4-(1-(2,3-dihydrobenzofuran-6-yl)ethyl)piperazin-1-yl)pyrimidin-5-yl)-2-methylpropan-1-ol]
13 | 2e-07 to 1e-06 | Cc1ccc(N2CCN(C(C)c3ccc4nccnc4c3)CC2)nn1 (racemic) [Example 44, 6-(1-(4-(6-Methylpyridazin-3-yl)piperazin-1-yl)ethyl)quinoxaline]
14 | < 5e-08 | CC(c1ccc2scnc2c1)N1CCN(c2ncc(C(=O)N(C)C)cn2)CC1 (racemic) [Example 97, 2-(4-(1-(benzo[d]thiazol-5-yl)ethyl)piperazin-1-yl)-N,N-dimethylpyrimidine-5-carboxamide]
15 | 5e-08 to 2e-07 | CC(c1ccc2nccnc2c1)N1CCN(c2ncc(CO)cn2)CC1 (racemic) [Example 86, (2-(4-(1-(Quinoxalin-6-yl)ethyl)piperazin-1-yl)pyrimidin-5-yl) methanol]
16 | 5e-08 to 2e-07 | CC(c1ccc2nccnc2c1)N1CCN(c2ccc(C3(O)CCCC3)cn2)CC1 (racemic) [Example 61, 1-(6-(4-(1-(quinoxalin-6-yl)ethyl)piperazin-1-yl)pyridin-3-yl)cyclopentan-1-ol]
17 | 5e-08 to 2e-07 | CC(C)C(O)c1cnc(N2CCN(C(C)c3ccc4nccnc4c3)CC2)nc1 (racemic) [Example 88, 2-methyl-1-(2-(4-(1-(quinoxalin-6-yl)ethyl)piperazin-1-yl)pyrimidin-5-yl) propan-1-ol]
18 | 5e-08 to 2e-07 | CC(=O)N1CCc2nc(N3CCN(C(C)c4ccc5nccnc5c4)CC3)ncc2C1 (racemic) [Example 6, 1-(2-(4-(1-(quinoxalin-6-yl)ethyl)piperazin-1-yl)-7,8-dihydropyrido[4,3-d]pyrimidin-6(5H)-yl)ethan-1-one]

Further lines, the molecule ahead of its results:

Row | Structure (SMILES) | IC50 [M]
19 | CC(O)c1cnc(N2CCN(C(C)c3ccc4nccnc4c3)CC2)nc1 (racemic) [Example 84, 1-(2-(4-(1-(quinoxalin-6-yl)ethyl)piperazin-1-yl)pyrimidin-5-yl) ethan-1-ol] | 5e-08 to 2e-07
20 | CC(C)C(O)c1ccc(N2CCN(C(C)c3ccc4nccnc4c3)CC2)nc1 (racemic) [Example 55, 2-methyl-1-(6-(4-(1-(quinoxalin-6-yl)ethyl)piperazin-1-yl)pyridin-3-yl)propan-1-ol] | 2e-07 to 1e-06
21 | CC(c1ccc2c(c1)OCC2)N1CCN(c2ncc(C3(O)COC3)cn2)CC1 (racemic) [Example 82, 3-(2-(4-(1-(2,3-dihydrobenzofuran-6-yl)ethyl)piperazin-1-yl)pyrimidin-5-yl)oxetan-3-ol] | < 5e-08
22 | CCOC(=O)c1nnc(N2CCN(C(C)c3ccc4nccnc4c3)CC2)s1 (racemic) [Example 120, Ethyl 5-(4-(1-(quinoxalin-6-yl)ethyl)piperazin-1-yl)-1,3,4-thiadiazole-2-carboxylate] | 1e-06 to 1e-05
23 | CC(c1ccc2nccnc2c1)N1CCN(c2nnc(CN(C)C)s2)CC1 (racemic) [Example 125, N,N-dimethyl-1-(5-(4-(1-(quinoxalin-6-yl)ethyl)piperazin-1-yl)-1,3,4-thiadiazol-2-yl)methanamine] | 2e-07 to 1e-06
24 | CC(c1ccc2nccnc2c1)N1CCN(c2nc3c(s2)CN(C)CC3)CC1 (racemic) [Example 20, 5-Methyl-2-(4-(1-(quinoxalin-6-yl)ethyl)piperazin-1-yl)-4,5,6,7-tetrahydrothiazolo[5,4-c]pyridine] | 5e-08 to 2e-07
25 | CC(c1ccc2nccnc2c1)N1CCN(c2ncc(C(=O)O)cn2)CC1 (racemic) [Example 106, 2-(4-(1-(quinoxalin-6-yl)ethyl)piperazin-1-yl)pyrimidine-5-carboxylic acid] | 5e-08 to 2e-07
26 | CC(=O)NCc1nnc(N2CCN(C(C)c3ccc4c(c3)OCC4)CC2)s1 (racemic) [Example 110] | < 5e-08
27 | CC(c1ccc2c(c1)OCC2)N1CCN(c2ncc(C3(O)CC3)cn2)CC1 (racemic) [Example 76, 1-(2-(4-(1-(2,3-dihydrobenzofuran-6-yl)ethyl)piperazin-1-yl)pyrimidin-5-yl)cyclopropan-1-ol] | < 5e-08
28 | CC(c1ccc2nccnc2c1)N1CCN(c2ccc(C(F)(F)F)nn2)CC1 (racemic) [Example 42, 6-(1-(4-(6-(trifluoromethyl)pyridazin-3-yl)piperazin-1-yl)ethyl)quinoxaline] | 2e-07 to 1e-06
29 | CC(c1ccc2c(c1)OCC2)N1CCN(c2ccc(C(=O)N(C)C)cn2)CC1 (racemic) [Example 63, 6-(4-(1-(2,3-dihydrobenzofuran-6-yl)ethyl)piperazin-1-yl)-N,N-dimethylnicotinamide] | < 5e-08
30 | CC(c1ccc2nccnc2c1)N1CCN(c2ccc(=O)[nH]n2)CC1 (single isomer, unassigned) [Example 38, (S)-6-(4-(1-(quinoxalin-6-yl)ethyl)piperazin-1-yl)pyridazin-3(2H)-one or (R)-6-(4-(1-(quinoxalin-6-yl)ethyl)piperazin-1-yl)pyridazin-3(2H)-one] | 5e-08 to 2e-07
31 | CC(c1ccc2nccnc2c1)N1CCN(c2ccc(F)nn2)CC1 (racemic) [Example 41, 6-(1-(4-(6-Fluoropyridazin-3-yl)piperazin-1-yl)ethyl)quinoxaline] | 2e-07 to 1e-06
32 | COC(=O)c1ccc(N2CCN(C(C)c3ccc4c(c3)OCC4)CC2)nc1 (racemic) [Example 62, Methyl 6-(4-(1-(2,3-dihydrobenzofuran-6-yl)ethyl)piperazin-1-yl)nicotinate] | < 5e-08
33 | CC(c1ccc2nccnc2c1)N1CCC(c2n[nH]c(=O)o2)CC1 (racemic) [Example 22, 5-(1-(1-(quinoxalin-6-yl)ethyl)piperidin-4-yl)-1,3,4-oxadiazol-2(3H)-one] | 2e-07 to 1e-06
34 | COC(=O)c1ccc(N2CCN(C(C)c3ccc4nccnc4c3)CC2)nc1 (racemic) [Example 66, Methyl-6-(4-(1-(quinoxalin-6-yl)ethyl)piperazin-1-yl) nicotinate] | 5e-08 to 2e-07
35 | CC(c1ccc2c(c1)OCC2)N1CCN(c2nnc(CN(C)C)s2)CC1 (racemic) [Example 123, 1-(5-(4-(1-(2,3-dihydrobenzofuran-6-yl)ethyl)piperazin-1-yl)-1,3,4-thiadiazol-2-yl)-N,N-dimethylmethanamine] | < 5e-08
36 | CC(=O)Nc1cnn(C2CCN(C(C)c3ccc4c(c3)OCC4)CC2)c1 (racemic) [Example 25, N-(1-(1-(1-(2,3-dihydrobenzofuran-6-yl)ethyl)piperidin-4-yl)-1H-pyrazol-4-yl)acetamide] | 5e-08 to 2e-07
37 | CNC(=O)c1nnc(N2CCN(C(C)c3ccc4nccnc4c3)CC2)s1 (racemic) [Example 121, N-methyl-5-(4-(1-(quinoxalin-6-yl)ethyl)piperazin-1-yl)-1,3,4-thiadiazole-2-carboxamide] | 2e-07 to 1e-06
38 | CC(c1ccc2c(c1)OCC2)N1CCN(c2ccc(C(F)(F)F)nn2)CC1 (racemic) [Example 40, 3-(4-(1-(2,3-dihydrobenzofuran-6-yl)ethyl)piperazin-1-yl)-6-(trifluoromethyl)pyridazine] | < 5e-08
39 | CC(c1ccc2c(c1)OCC2)N1CCN(c2nnc(C(=O)N(C)C)s2)CC1 (racemic) [Example 119, 5-(4-(1-(2,3-dihydrobenzofuran-6-yl)ethyl)piperazin-1-yl)-N,N-dimethyl-1,3,4-thiadiazole-2-carboxamide] | < 5e-08
40 | COC(=O)c1cnc(N2CCN(C(C)c3ccc4c(c3)OCC4)CC2)nc1 (racemic) [Example 98, Methyl 2-(4-(1-(2,3-dihydrobenzofuran-6-yl)ethyl)piperazin-1-yl)pyrimidine-5-carboxylate] | < 5e-08
41 | CC(=O)NC(C)(C)c1cnc(N2CCN(C(C)c3ccc4c(c3)OCC4)CC2)nc1 (racemic) [Example 104] | < 5e-08
